# Assay results taken from patent US9708311B2, “Benzimidazole derivatives as EP4 antagonists” (BAYER PHARMA AKTIENGESELLSCHAFT, priority 2012, dated 2017).
# Target: human EP4 receptor (Homo sapiens (Human), UniProt P35408)
# Assay: Test for antagonism of the human EP4 receptor signal (cAMP HTRF)
# Format: cell-based
# Conditions: cells expressing hEP4, PGE2 at EC80 (0.4 nM), cAMP TR-FRET; read-out: Antagonism hEP4 IC50
# Text: The binding of the agonist prostaglandin E2 (PGE2) to the EP4 subtype of human hPGE2-R (hEP4-R) induces the activation of membrane-bound adenylate cyclases and thus the formation of cAMP. In the presence of the phosphodiesterase inhibitor IBMX, this cAMP accumulates intracellularly and is employed in a competitive detection procedure after cell lysis. In this procedure, it competes with a fluorescence-labelled cAMP (cAMP-d2) for binding to an Eu cryptate-labelled anti-cAMP antibody. In the absence of cellular cAMP, a complex is formed between the Eu cryptate-labelled anti-cAMP antibody and the cAMP-d2 molecule, which after excitation at 337 nm makes possible an energy transfer based on FRET (fluorescence resonance energy transfer) to the cAMP-d2 tracer and leads to a long-lasting fluorescence signal (emission at 665 and 620 nm). This signal is time-resolved, i.e. measured in a suitable measuring apparatus after decay of the background fluorescence (time resolved; TR-FRET). The wave ratio determination (emission 665 nm/emission 620 nm*10000) moreover makes it possible to standardize individual measurement differences in the added amounts of the detection reagents.
# By means of prostaglandin E2 administration and increase in the intracellular cAMP, a lowering of the FRET signal occurs, which in the case of an antagonistic substance action increases again.
# A further 20 min at room temperature later, the cell lysate is measured according to the manufacturer's instructions in a TR-FRET-suitable measuring apparatus (compare cAMP HTRF assay kit: Cisbio International 62AM6PEJ high range)
# Sequence of human EP4 receptor (P35408 whole entry): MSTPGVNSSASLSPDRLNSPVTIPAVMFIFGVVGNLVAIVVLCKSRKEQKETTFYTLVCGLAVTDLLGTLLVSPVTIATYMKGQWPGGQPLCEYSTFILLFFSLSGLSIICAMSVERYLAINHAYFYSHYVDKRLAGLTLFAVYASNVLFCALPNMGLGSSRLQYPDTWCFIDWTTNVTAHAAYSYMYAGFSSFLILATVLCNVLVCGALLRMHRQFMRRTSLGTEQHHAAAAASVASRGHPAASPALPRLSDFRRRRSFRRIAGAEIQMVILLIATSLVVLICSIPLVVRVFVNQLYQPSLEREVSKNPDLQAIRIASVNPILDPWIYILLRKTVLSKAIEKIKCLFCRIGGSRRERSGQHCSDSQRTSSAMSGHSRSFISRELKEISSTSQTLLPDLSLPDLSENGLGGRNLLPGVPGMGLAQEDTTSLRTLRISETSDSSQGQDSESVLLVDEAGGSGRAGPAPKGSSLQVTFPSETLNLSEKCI
row,Structure (SMILES),IC50
1,"CCn1c2ccccc2c2cc(-c3nc4cc(C(=O)NCCN(C)C)ccc4n3CCOC)ccc21 [Example 86, N-[2-(Dimethylamino)ethyl]-2-(9-ethyl-9H-carbazol-3-yl)-1-(2-methoxyethyl)-1H-benzimidazole-5-carboxamide]",245 nM
2,"CCn1c2ccccc2c2cc(-c3nc4c(C)c(C(=O)O)ccc4n3CC3CC3)cnc21 [Example 107, 1-(Cyclopropylmethyl)-2-(9-ethyl-9H-pyrido[2,3-b]indol-3-yl)-4-methyl-1H-benzimidazole-5-carboxylic acid]",433 nM
3,"CCn1c2ccccc2c2cc(-c3nc4cc(C(=O)NS(=O)(=O)CCc5cccc(OC)c5)ccc4n3CCOC)ccc21 [Example 69, 2-(9-Ethyl-9H-carbazol-3-yl)-1-(2-methoxyethyl)-N-{[2-(3-methoxyphenyl)ethyl]-sulphonyl}-1H-benzimidazole-5-carboxamide]",155 nM
4,"CCn1c2ccccc2c2cc(-c3nc4cc(C(=O)NS(=O)(=O)CC)ccc4n3CCOC)ccc21 [Example 18, 2-(9-Ethyl-9H-carbazol-3-yl)-N-(ethylsulphonyl)-1-(2-methoxyethyl)-1H-benzimidazole-5-carboxamide]",22.8 nM
5,"CCn1c2ccc(Cl)cc2c2cc(-c3nc4c(C)c(C(=O)O)ccc4n3CCOC)ccc21 [Example 142, 2-(6-Chloro-9-ethyl-9H-carbazol-3-yl)-1-(2-methoxyethyl)-4-methyl-1H-benzimidazole-5-carboxylic acid]",4.16 nM
6,"C=CCn1c(-c2ccc3c(c2)c2ccccc2n3CC)nc2cc(C(N)=O)ccc21 [Example 89, 1-Allyl-2-(9-ethyl-9H-carbazol-3-yl)-1H-benzimidazole-5-carboxamide]",3640 nM
7,"CCn1c2ccccc2c2cc(-c3nc4cc(C(=O)O)ccc4n3C[C@H](O)COC)ccc21 [Example 135, 2-(9-Ethyl-9H-carbazol-3-yl)-1-[(2S)-2-hydroxy-3-methoxypropyl]-1H-benzimidazole-5-carboxylic acid]",340 nM
8,"CCn1c2ccccc2c2cc(-c3nc4cc(C#N)ccc4n3CCOC)ccc21 [Example 44, 2-(9-Ethyl-9H-carbazol-3-yl)-1-(2-methoxyethyl)-1H-benzimidazole-5-carbonitrile]",421 nM
9,"CCn1c2ccccc2c2cc(-c3nc4cc(C(=O)NS(=O)(=O)c5ccc(OC)cc5)ccc4n3CCOC)ccc21 [Example 19, 2-(9-Ethyl-9H-carbazol-3-yl)-1-(2-methoxyethyl)-N-[(4-methoxyphenyl)sulphonyl]-1H-benzimidazole-5-carboxamide]",32.2 nM
10,"CCn1c2ccccc2c2cc(-c3nc4cc(C(=O)NC)ccc4n3CCOC)ccc21 [Example 41, 2-(9-Ethyl-9H-carbazol-3-yl)-1-(2-methoxyethyl)-N-methyl-1H-benzimidazole-5-carboxamide]",96.7 nM
11,"CCn1c2ccccc2c2cc(-c3nc4cc(C(=O)NC)ccc4n3CCN(C)C)ccc21 [Example 73, 1-[2-(Dimethylamino)ethyl]-2-(9-ethyl-9H-carbazol-3-yl)-N-methyl-1H-benzimidazole-5-carboxamide]",382 nM
12,"CCn1c2ccccc2c2cc(-c3nc4c(C)c(C(=O)O)ccc4n3CC3CC3)ccc21 [Example 9, 1-(Cyclopropylmethyl)-2-(9-ethyl-9H-carbazol-3-yl)-4-methyl-1H-benzimidazole-5-carboxylic acid]",71.2 nM
13,"CCn1c2ccccc2c2cc(-c3nc4cc(C(C)(C)O)ccc4n3CCOC)ccc21 [Example 101, 2-[2-(9-Ethyl-9H-carbazol-3-yl)-1-(2-methoxyethyl)-1H-benzimidazol-5-yl]propan-2-ol]",989 nM
14,"C=CCn1c(-c2ccc3c(c2)c2ccccc2n3CC)nc2cc(C(=O)NC)ccc21 [Example 88, 1-Allyl-2-(9-ethyl-9H-carbazol-3-yl)-N-methyl-1H-benzimidazole-5-carboxamide]",2100 nM
15,"CCn1c(-c2ccc3c(c2)c2ccccc2n3CC)nc2cc(C(=O)OC)ccc21 [Example 95, Methyl 1-ethyl-2-(9-ethyl-9H-carbazol-3-yl)-1H-benzimidazole-5-carboxylate]",1030 nM
16,"CCn1c2ccccc2c2cc(-c3nc4cc(C(=O)NS(=O)(=O)c5cccc(Cl)c5)ccc4n3CCOC)ccc21 [Example 17, N-[(3-Chlorophenyl)sulphonyl]-2-(9-ethyl-9H-carbazol-3-yl)-1-(2-methoxyethyl)-1H-benzimidazole-5-carboxamide]",14.7 nM
17,"CCCn1c2ccccc2c2cc(-c3nc4cc(C(=O)O)ccc4n3CCOC)ccc21 [Example 118, 1-(2-Methoxyethyl)-2-(9-propyl-9H-carbazol-3-yl)-1H-benzimidazole-5-carboxylic acid]",36.2 nM

# Continued by falling IC50, values first:
row,IC50,Structure (SMILES)
1,3110 nM,"CCn1c2ccccc2c2cc(-c3nc4cc(C(=O)O)c(OC)cc4n3CCOC)ccc21 [Example 103, 2-(9-Ethyl-9H-carbazol-3-yl)-6-methoxy-1-(2-methoxyethyl)-1H-benzimidazole-5-carboxylic acid]"
2,404 nM,"CCn1c2ccccc2c2cc(-c3nc4cc(C(=O)OC)ccc4n3CC3CC3)ccc21 [Example 5, Methyl 1-(cyclopropylmethyl)-2-(9-ethyl-9H-carbazol-3-yl)-1H-benzimidazole-5-carboxylate]"
3,305 nM,"CCn1c2ccccc2c2cc(-c3nc4cc(S(N)(=O)=O)ccc4n3CCOC)ccc21 [Example 127, 2-(9-Ethyl-9H-carbazol-3-yl)-1-(2-methoxyethyl)-1H-benzimidazole-5-sulphonamide]"
4,257 nM,"O=C(O)c1ccc2c(c1)nc(-c1ccc3c(c1)c1ccccc1n3CC1CCC1)n2CC1CC1 [Example 125, 2-[9-(Cyclobutylmethyl)-9H-carbazol-3-yl]-1-(cyclopropylmethyl)-1H-benzimidazole-5-carboxylic acid]"
5,119 nM,"CCn1c2ccc(-c3nc4cc(C(=O)O)ccc4n3CC3CC3)cc2c2ccncc21 [Example 108, 1-(Cyclopropylmethyl)-2-(9-ethyl-9H-beta-carbolin-6-yl)-1H-benzimidazole-5-carboxylic acid]"
6,111 nM,"CCn1c2ccccc2c2cc(-c3nc4cc(-n5ccnn5)ccc4n3C)ccc21 [Example 128, 9-Ethyl-3-[1-methyl-5-(1H-1,2,3-triazol-1-yl)-1H-benzimidazole-2-yl]-9H-carbazole]"
7,78.3 nM,"CCn1c2ccccc2c2cc(-c3nc4cc(C(=O)NS(=O)(=O)C5(C)CC5)ccc4n3CCOC)ccc21 [Example 40, 2-(9-Ethyl-9H-carbazol-3-yl)-1-(2-methoxyethyl)-N-[(1-methylcyclopropyl)sulphonyl]-1H-benzimidazole-5-carboxamide]"
8,51.5 nM,"CCn1c2ccccc2c2cc(-c3nc4cc(C(=O)O)ccc4n3CC3COC3)ccc21 [Example 123, 2-(9-Ethyl-9H-carbazol-3-yl)-1-(oxetan-3-ylmethyl)-1H-benzimidazole-5-carboxylic acid]"
9,43.7 nM,"C#CCn1c2ccccc2c2cc(-c3nc4cc(C(=O)O)ccc4n3CCOC)ccc21 [Example 119, 1-(2-Methoxyethyl)-2-[9-(prop-2-yn-1-yl)-9H-carbazol-3-yl]-1H-benzimidazole-5-carboxylic acid]"
10,28.7 nM,"C=CCn1c2ccccc2c2cc(-c3nc4cc(C(=O)O)ccc4n3CC3CC3)ccc21 [Example 33, 2-(9-Allyl-9H-carbazol-3-yl)-1-(cyclopropylmethyl)-1H-benzimidazole-5-carboxylic acid]"
11,25.6 nM,"CCn1c2ccccc2c2cc(-c3nc4cc(C(=O)NS(=O)(=O)c5cccc(C)c5)ccc4n3CCOC)ccc21 [Example 47, 2-(9-Ethyl-9H-carbazol-3-yl)-1-(2-methoxyethyl)-N-[(3-methylphenyl)sulphonyl]-1H-benzimidazole-5-carboxamide]"
12,22.2 nM,"CCn1c2ccc(-c3nc4cc(C(=O)O)ccc4n3CC3CC3)cc2c2cccnc21 [Example 116, 1-(Cyclopropylmethyl)-2-(9-ethyl-9H-pyrido[2,3-b]indol-6-yl)-1H-benzimidazole-5-carboxylic acid]"
13,19.8 nM,"CCn1c2ccccc2c2cc(-c3nc4cc(C(=O)NS(=O)(=O)Cc5c(Cl)cccc5Cl)ccc4n3CCOC)ccc21 [Example 60, N-[(2,6-Dichlorbenzyl)sulphonyl]-2-(9-ethyl-9H-carbazol-3-yl)-1-(2-methoxyethyl)-1H-benzimidazole-5-carboxamide]"
14,7 nM,"CCn1c2ccccc2c2cc(-c3nc4cc(C(=O)O)ccc4n3CC3CCCO3)ccc21 (stereo not drawn) [Example 133, 2-(9-Ethyl-9H-carbazol-3-yl)-1-(tetrahydrofuran-2-ylmethyl)-1H-benzimidazole-5-carboxylic acid]"
15,6.36 nM,"CCn1c2ccc(-c3nc4cc(C(=O)O)ccc4n3CCOC)cc2c2c(F)cccc21 [Example 11, 2-(9-Ethyl-5-fluoro-9H-carbazol-3-yl)-1-(2-methoxyethyl)-1H-benzimidazole-5-carboxylic acid]"
16,5.19 nM,"CCn1c2ccc(-c3nc4c(C)c(C(=O)O)ccc4n3CCOC)cc2c2cccc(Cl)c21 [Example 143, 2-(8-Chloro-9-ethyl-9H-carbazol-3-yl)-1-(2-methoxyethyl)-4-methyl-1H-benzimidazole-5-carboxylic acid]"
